{"source": "a melting point compilation (Tetko et al.; mined from patent text by program, amines drawn as free bases though some values may be those of a salt)", "data": [{"units": {"melting point": "°C"}, "values": [{"smiles": "CC(=O)NC[C@H]1CN(c2ccc(N3CC(C)(O)C3)c(F)c2)C(=O)O1", "melting point": "152 to 153"}, {"smiles": "CCn1c2ccccc2c2c3c(nc(C)c21)CC(C)(C)CC3=O", "melting point": "174 to 177"}, {"smiles": "COC(=O)C(C)NC(=O)c1cc2cc(Cl)ccc2[nH]1", "note": "(single isomer, unassigned; (+))", "melting point": "199 to 201"}, {"smiles": "CCN(CC)C(=O)Oc1cc(-c2ccncc2)nc2ccccc12", "melting point": 76}, {"smiles": "Cc1cccc(C(=O)C2CCCc3cccnc32)c1", "note": "(configuration not stated)", "melting point": "211 to 213"}, {"smiles": "CC(C)(CNc1ccnc2cc(Cl)ccc12)NCc1ccc(C(F)(F)F)cc1", "melting point": "145 to 147"}, {"smiles": "CCc1nc2c(N)nc3ccc(OCc4ccccc4)cc3c2n1CCCCNS(C)(=O)=O", "melting point": "186 to 191"}, {"smiles": "CCCCc1nn(-c2ccc(C(F)(F)F)cn2)cc1CCCOc1ccccc1CC(=O)O", "melting point": "106 to 107"}, {"smiles": "CN(C(CCn1c(=O)[nH]c2ncccc2c1=O)C(=O)NO)S(=O)(=O)c1ccc(Oc2ccccc2)cc1", "note": "(configuration not stated)", "melting point": "125 to 126"}, {"smiles": "Cc1c(Cl)nc(Cl)nc1Cl", "melting point": "67 to 68"}, {"smiles": "C=Cc1cc(C)cc(C)c1CC(=O)N(O)C1(C(=O)OC)CCN(OC)CC1", "melting point": "177 to 179"}, {"smiles": "FC(F)(F)c1nnc(Sc2ccc(Cl)c(Cl)c2)s1", "melting point": 46}, {"smiles": "N#Cc1cnn(C2CCCCC2)c1N", "melting point": "99 to 103"}, {"smiles": "O=C(O)C1=Cc2cc(C#Cc3ccccc3)ccc2OC1C(F)(F)F", "note": "(configuration not stated)", "melting point": "240 to 241"}, {"smiles": "CN(C)c1cc2c(cc1Cl)NC(=O)CC(c1cccc(-c3csc(Nc4ccncc4)n3)c1)=N2", "melting point": "231 to 234"}, {"smiles": "O=C(O)c1cc2c(Cl)ncnc2s1", "melting point": "> 265"}, {"smiles": "CN1C(=O)C2C3CCC(C3)C2(c2cccc(Br)c2)C1=O", "note": "(configuration not stated)", "melting point": "105 to 107"}, {"smiles": "Cc1c(N)ccn2nc(-c3ccccc3)nc12", "melting point": "213 to 215"}, {"smiles": "C#CC(C)(O)CCC=C(C)CCC=C(C)CCC=C(C)CCC=C(C)CCC=C(C)CCC=C(C)CCC=C(C)CCC=C(C)CCC=C(C)CCC=C(C)C", "note": "(configuration not stated)", "melting point": "35.5 to 36.5"}, {"smiles": "COC(=O)[C@H](CC(C)C)NC(=O)[C@H](NC(=O)OCc1ccccc1)C(C)C", "melting point": "112 to 114"}, {"smiles": "Cc1oc(-c2ccccc2)nc1COc1ccc(Sc2nc(-c3ccccc3)c(CCC(=O)O)o2)cc1", "melting point": "136 to 137"}, {"smiles": "CC(C)Oc1ccc(CCCOc2cc(CCC(=O)O)n(-c3ccccc3)n2)c(Oc2ccc(C(F)(F)F)cn2)c1", "melting point": "80 to 82"}, {"smiles": "O=C(NC(=O)c1c(F)cccc1F)Nc1cc(Cl)c(Oc2ccc(Cl)c3ccccc23)c(Cl)c1", "melting point": "237 to 239"}, {"smiles": "CNC(=O)c1cc(-c2cnn(C)c2)cc(F)c1Nc1nc(Cl)ncc1Cl", "melting point": "220 to 221"}, {"smiles": "N#Cc1c(F)nc2ccc([N+](=O)[O-])cc2c1F", "melting point": "128 to 129"}, {"smiles": "O=C(OCc1ccccc1)c1ccc(O)c(O)c1", "melting point": "147 to 149"}, {"smiles": "CCNc1cc2ncnc(N3CCN(C(=O)Nc4ccc(Oc5ccccc5)cc4)CC3)c2cc1[N+](=O)[O-]", "melting point": "242 to 244"}, {"smiles": "Cn1cnnc1C(O)(c1ccc(I)cc1)c1ccc2c(c1)c(-c1cccc(Cl)c1)nc1nnnn12", "note": "(configuration not stated)", "melting point": 228}, {"smiles": "COc1ccc2c(c1)N(c1ccc(F)cc1)C(=O)C2(CCc1nnn[nH]1)NC(=O)c1cc2ccccc2cn1", "note": "(configuration not stated)", "melting point": "154 to 160"}, {"smiles": "CC(=O)c1ccc2nc(-n3ccnc3)nc(NCCOCCO)c2c1", "melting point": "164 to 166"}, {"smiles": "CCOC(=O)C(CC(C)C)(C(=O)OCC)[C@H](NC(C)=O)[PH](=O)O", "melting point": "105 to 106"}, {"smiles": "CCc1c(C)[nH]c2cc(OCCN3CCOCC3)c(Cl)cc2c1=O", "melting point": "270 to 271"}, {"smiles": "O=c1ccc(S(=O)(=O)n2nc(Cl)c3ccccc32)n[nH]1", "melting point": "238 to 239"}, {"smiles": "c1ccc(CN2CCN(Cc3n[nH]c4ccccc34)CC2)cc1", "melting point": "130 to 131"}, {"smiles": "COCCc1nc2c(N)nc3cc(OCc4cccc([N+](=O)[O-])c4)ccc3c2n1CC(C)(C)O", "melting point": "125 to 127"}, {"smiles": "CCOC(=O)NC(C(=O)NN(Cc1ccc(-c2nccs2)cc1)CC(O)C(Cc1ccccc1)NC(=O)C(NC(=O)OC)C(C)CC)C(C)C", "note": "(configuration not stated)", "melting point": "209 to 211"}, {"smiles": "Fc1cccc(C(c2ccccc2)(c2cccc(F)c2)n2ccnc2)c1", "melting point": "165 to 167"}, {"smiles": "CC1(c2ccccc2)C(=O)Nc2cc(Cl)cc(Cl)c2C1=O", "note": "(configuration not stated)", "melting point": "222 to 225"}, {"smiles": "COc1cc([N+](=O)[O-])ccc1NC(=O)OCc1ccccc1", "melting point": "130 to 131"}, {"smiles": "CSc1nc(C)ccc1NC(=O)CCCCCBr", "melting point": "98 to 99"}, {"smiles": "Cc1cc(C(=O)O)ccc1C1=CCCc2ccccc21", "melting point": 173}, {"smiles": "ON=C1CCC2(O)C3Cc4ccc(O)c5c4C2(CCN3CC2CC2)C1O5", "note": "(configuration not stated)", "melting point": "235 to 236"}, {"smiles": "CC(=O)OCC1(C)SC2C(NC(=O)Cc3ccccc3)C(=O)N2C1C(=O)OCC(Cl)(Cl)Cl", "note": "(configuration not stated)", "melting point": "116 to 118"}, {"smiles": "COc1cc(N)c(Cl)cc1C(=O)NCC1CCN(CCCS(=O)(=O)Cc2ccc(Cl)cc2)CC1", "melting point": "175 to 177"}, {"smiles": "COC(=O)CCSCC(=O)c1ccc2c(c1)CC(=O)N2", "melting point": "106 to 108"}, {"smiles": "Cn1nc(-c2ccccc2)c2ccc(Cl)nc21", "melting point": "94 to 96"}, {"smiles": "COC(=O)c1cc2ccc(C)cc2n1C(C)=O", "melting point": "51 to 53"}, {"smiles": "Cc1cn2nc(S(=O)(=O)Cl)nc2nc1C", "melting point": "116 to 120"}, {"smiles": "Cc1[nH]c(Cl)c(C#N)c1SC(F)(Cl)Cl", "melting point": 187}, {"smiles": "COC(=O)c1cccc(O)c1C", "melting point": "74 to 75"}, {"smiles": "Clc1ccccc1CN1CC=C(c2cc3ccccc3s2)CC1", "melting point": "105 to 106"}, {"smiles": "CNCC1Cc2cc(-c3ccccc3)cc(-c3ccc(C)cc3)c2O1", "note": "(configuration not stated)", "melting point": "> 250"}, {"smiles": "CCOC(=O)Cc1nn(CC(=S)Nc2cc(C(F)(F)F)ccc2Br)c(=O)c2ccccc12", "melting point": 160}, {"smiles": "O=C(NC(Cc1ccc(OCc2ccccc2)cc1)C(=O)O)c1cc2ccc(-c3ccc(Cl)cc3)cc2[nH]1", "note": "(configuration not stated)", "melting point": "202 to 204"}, {"smiles": "O=C(O)c1cn(C2CC2)c2c(F)c(N3CC4CCC3CN4)c(F)cc2c1=O", "note": "(configuration not stated)", "melting point": "275 to 280"}, {"smiles": "Nc1sc(-c2ccccn2)c(CN(C2CCCCC2)C2CCCCC2)c1C(=O)c1ccc(Cl)cc1", "melting point": "192 to 194"}, {"smiles": "CCCCc1c(/C=C/C(=O)O)cc(OC)c2ccc(OC)cc12", "melting point": "174 to 176"}, {"smiles": "Cc1ccnc(N2CCN(CCCC3CNc4c(ccc(C)c4-c4cc(C)c(O)c(C)c4)O3)CC2)c1", "note": "(configuration not stated)", "melting point": 110}, {"smiles": "Sc1c(Cl)cc(Cl)c(Cl)c1S", "melting point": "115 to 116"}, {"smiles": "CC(C)(C)OC(=O)N1CCN(c2cccc3ccc(Nc4ncccc4N)cc23)CC1", "melting point": "183 to 184"}, {"smiles": "CSc1c(N)nc(NCCCOC(C)C)nc1Cl", "melting point": 245}, {"smiles": "Cc1ccc([C@@H]2c3c(C)c(NC(=O)Cc4ccc(C(F)(F)F)cc4)c(C)c(C)c3OC2(C)C)cc1", "melting point": "187 to 189"}, {"smiles": "O=[N+]([O-])c1ccc(S(=O)C2CC2)cc1", "note": "(racemic)", "melting point": "104 to 106"}, {"smiles": "COc1cc2c(cc1OC)CN(CC(O)c1ccc(NC(=O)c3cccc4c(=O)c5cccc(OC)c5[nH]c34)cc1)CC2", "note": "(configuration not stated)", "melting point": "160 to 165"}, {"smiles": "O=C(O)CC(CSc1nc2ccccc2s1)C(=O)O", "note": "(configuration not stated)", "melting point": "136 to 139"}, {"smiles": "Clc1ccc2[nH]c(-c3ccccc3)c(CCN3CCCCC3)c2c1", "melting point": "153 to 154"}, {"smiles": "CC1(c2ccccc2)C(=O)Nc2ccc(Cl)cc21", "note": "(configuration not stated)", "melting point": "180 to 181"}, {"smiles": "COc1cc2c(c(C(C)C)c1OC)C(=O)N(CSc1nnnn1-c1ccccc1)S2(=O)=O", "melting point": "69 to 71"}, {"smiles": "CCCCCc1nc(N(C)C)nc(C)c1O", "melting point": "61 to 62"}, {"smiles": "CCOc1cc2c(cc1OCC)[C@@H]1CCCC[C@@H]1N=C2c1ccc(O)nc1", "note": "(racemic)", "melting point": "211 to 213"}, {"smiles": "CC(=O)c1cccc(Oc2cccc(-c3cccc(C(=O)NCCC#N)c3)n2)c1", "melting point": "140 to 141"}, {"smiles": "COc1ccccc1NC(=O)Nc1nc(Nc2ccc(CC(=O)O)cc2)nc(Nc2ccccc2-c2ccccc2)n1", "melting point": "> 300"}, {"smiles": "COc1ccccc1NC(=O)Nc1nc(Oc2ccc3ccccc3c2)nc(N(CCC(=O)O)Cc2ccc(C(F)(F)F)cc2C(F)(F)F)n1", "melting point": 192}, {"smiles": "O=c1c(OC(F)F)cn(-c2ccccc2F)nc1-c1ccnn1-c1ccccc1", "melting point": "109 to 114"}, {"smiles": "CC(C)c1ccc(NC(=O)c2ccc(C(=O)O)nc2)cc1C(C)C", "melting point": "199 to 200"}, {"smiles": "Cc1c(CNC(C)C)ncn1C(c1ccccc1)(c1ccccc1)c1ccccc1", "melting point": "150 to 154"}, {"smiles": "CCn1cc(CN(C(=O)Nc2c(C)cccc2C)c2ccc(C(C)C)cc2)cn1", "melting point": 108}, {"smiles": "Cc1ccc(S(=O)(=O)OCCCCCCCl)cc1", "melting point": "27 to 28"}, {"smiles": "COC(=O)CC(C)C(=O)c1ccc(O)cc1", "note": "(configuration not stated)", "melting point": "89 to 91"}, {"smiles": "O=C(NS(=O)(=O)c1ccccc1C(=O)OC1COC1)Oc1ccccc1", "melting point": "91 to 92"}, {"smiles": "Oc1ccc(C(c2ccc(O)cc2)c2cccc3ccccc23)cc1", "melting point": "109 to 111"}, {"smiles": "CCOC(=O)c1coc2ccc(-c3nnc(C)o3)cc12", "melting point": "135 to 136"}, {"smiles": "COC(=O)c1cc(O)ccc1NC(=O)c1ccc(Cl)cc1Cl", "melting point": "181 to 182"}, {"smiles": "C=CCOC(=O)C(C(=O)NC1C(=O)N2C1SC(C)(C)C2C(=O)OCC=C)=C1SCCS1", "note": "(configuration not stated)", "melting point": "76 to 77"}, {"smiles": "Ic1ccc2c(c1)Cc1cc(I)ccc1-2", "melting point": "203 to 207"}, {"smiles": "O=C(Nc1cnccn1)Nc1cccc2c1C1CC3(CCN1C2=O)SCCS3", "note": "(configuration not stated)", "melting point": 236}, {"smiles": "CCCC(=CC(N)C(=O)O)CP(=O)(O)O", "note": "(configuration not stated)", "melting point": 193}, {"smiles": "C=CC(c1ccccc1)c1c(C)c(OC(C)=O)c(C)c(C)c1O", "note": "(configuration not stated)", "melting point": "136 to 138"}, {"smiles": "O=C(C=Cc1ccc(O)cc1)N1CCc2c([nH]c3ccccc23)C1c1ccc2c(c1)OCO2", "note": "(configuration not stated)", "melting point": 175}, {"smiles": "CCOc1cc(C(=O)N2CCC(CCN3CCC(C(N)=O)(c4ccccc4)CC3)(c3ccc(OC)c(OC)c3)C2)cc(OCC)c1OCC", "note": "(configuration not stated)", "melting point": "139 to 141"}, {"smiles": "Cc1c(NCCO)c(F)cc2c(=O)c(C(=O)O)cn(-c3cc(N)c(F)cc3F)c12", "melting point": "166 to 168"}, {"smiles": "Cc1cc(-c2ccc(C(=N)NO)o2)ccc1Br", "melting point": 239}, {"smiles": "CCOC(=O)c1nc2c(=O)[nH]c3cc(C(F)(F)F)ccc3n2c1CNc1ccc2c(c1)OCO2", "melting point": "> 250"}, {"smiles": "CSc1ccc(F)c(C#N)c1", "melting point": "61.7 to 62.7"}, {"smiles": "CCC(=O)c1cnc2c(OCCO)cccc2c1Nc1ccccc1C", "melting point": "174 to 176"}, {"smiles": "Cc1nn(C)c2c(Cl)ncnc12", "melting point": "92 to 95"}, {"smiles": "CC(=O)C(=NNc1ccc([N+](=O)[O-])cc1)Sc1ccc(Cl)cc1", "melting point": "181 to 183"}]}]}
